Assay results taken from paper PMC9253272 (Frontiers in Pharmacology, 2022).
Counter-ions that a name gives are not always drawn. Like-named read-outs stand apart in the source and are kept apart here.

Key:
[1] = tested on: primary rat cortical neurons; test: Oxygen and glucose deprivation (OGD) of primary cortical neurons, MTT viability; type: cell-based; details: 0.5 and 1 mM, 24 h pre-treatment, OGD 3 h, reperfusion 24 h
Description: The culture medium was replenished with Neurobasal medium (Life Technologies) supplemented with 2% B27 (Life Technologies) 5 h after isolation, and half of the culture media was changed every 2 days, after 6 days of culture, and the neurons were used for further experiments.
Cells were transferred to a hypoxia incubator with 1% oxygen and 5% CO2 for 3 h. […] Control cells were not submitted to OGD and were maintained under normal conditions.

AMPK [2] = test: AMPK phosphorylation (p-AMPK Thr 172) by immunoblot in BV-2 microglial cells; type: cell-based; details: for onset time of AMPK activation: 1 mM, time course; for concentration at which activation of AMPK (p-AMPK) was observed (lowest effective): 1 h incubation
Description: When reached 80% confluence, cells were seeded in 12-well or 6-well plates to perform further experiments.

[3] = tested on: rat primary cortical neurons; details: microglia treated with 1 mM, LPS 24 h; neurons 24 h
Description: Primary rat cortical microglia cells were prepared from newborn to 2–3 days-old SD strains. […] The supernatant was discarded after centrifuging at 1,100 × rpm for 10 min, the pellet was resuspended, and cortices were fully dissociated by pipetting, the cell suspension was filtered through a 70 μm mesh and transferred into a 75-cm^2 culture flask with poly-L-lysine (PLL, Sigma-Aldrich) coated. Flasks were incubated at 37°C and 5% CO2, and half of the culture media were changed every 2 days, after 2 weeks of culture, primary microglia were harvested by shaking the flask for 2 h at 200 × rpm, and then seeded into new plates pre-coated with PLL. […]
The neuron culture medium was collected and LDH was measured by the LDH assay kit (BioAssay Systems) according to the manufacturer’s instructions.
Data were presented as mean ± SD, statistical analysis was performed with one-way ANOVA followed by a Dunnett’s post hoc tests, ^∗∗ p < 0.01 versus LPS group; ^## p < 0.01, versus LPS with SHY-treated group. […] Results are expressed as mean ± SD (n = 5). […] Cell viability was analyzed by MTT assay, results are expressed as mean ± SD (n = 8). […]

BV-2 microglial cells [4] = test: Cellular pharmacokinetics: uptake of metformin into BV-2 microglia (LC-MS/MS); details: BV-2 cells
Description: (§1) The Michaelis-Menten equation with one saturable component was fit to the corrected uptake rate and the estimated Km and Vmax values are presented.

BV-2 microglial cells [5] = test: LPS-induced nitrite release in BV-2 microglial cells (Griess reagent); type: cell-based; details: BV-2 cells; for IC50: pre-incubation 1 h (0.03-2.0 mM), then LPS 24 h
Description: (§2) In brief, 50 μl cell supernatants were mixed with 50 μl Griess regent in 96-well-plate and reacted for about 5–10 min at room temperature. Read plate at 540 nm by a Microplate reader (Infinite M200, Molecular Device).
Supernatants were collected for nitrite analysis.

BV-2 microglial cells [6] = details: BV-2 cells, 1 mM, 1 h pre-incubation, LPS 200 ng/ml
Description: as §2
Data were presented as mean ± SD, statistical analysis was performed with one-way ANOVA followed by a Dunnett’s post hoc tests, ^∗∗ p < 0.01 versus LPS group; ^## p < 0.01, versus LPS with SHY-treated group. […] Results are expressed as mean ± SD (n = 5). Data are presented as mean ± SD, statistical analysis was performed with one-way ANOVA, followed by a Dunnett’s post hoc tests, ^∗∗ p < 0.01 versus LPS group; ^# p < 0.05, versus LPS with SHY-treated group.

tMCAO rats = details: 50 mg/kg/day i.p., four weeks after tMCAO
[7] = rat plasma, 50 mg/kg i.p.
AMPK [8] = details: initial screening; ref Zhen et al., 2019; cited from earlier work
in vivo [9] = details: male, Sprague-Dawley, rat, plasma, ip, 50 mg/kg
AMPK [10] = tested on: AMPK; set-up: method as in Ma et al., 2014; details: ref Ma et al., 2014; cited from earlier work
in vivo [11] = details: male, Sprague-Dawley, rat, brain, 50 mg/kg
in vitro = details: mouse, BV-2 microglial cells
Description: as §1

[12] = 15 min uptake, Michaelis-Menten fit
[13] = rat brain, metformin measured, 50 mg/kg i.p.

Question: For `CN(C)C(=N)NC(=N)N.O=C(O)[C@H](O)[C@@H](O)CO` [SHY-01, metformin threonate], which “OGD-induced neuronal injury (cell viability, MTT)” value [1] is on record?
Answer: significantly prevented

Question: What about the “p-AMPK level compared to the same concentration of metformin hydrochloride” value (AMPK [2]; BV-2 cells, 0.3 mM, 1 h) of the same compound?
Answer: significantly higher

Question: And the “effect on LPS-reduced AMPK phosphorylation” value (AMPK [2]; BV-2 cells, 1 mM pre-incubation, LPS 200 ng/ml 0-4 h)?
Answer: significantly reverse

Question: What about the “onset time of AMPK activation” value (AMPK [2]; BV-2 cells) of the same compound?
Answer: 0.5 h

Question: And the “concentration at which activation of AMPK (p-AMPK) was observed (lowest effective)” value (AMPK [2]; BV-2 cells)?
Answer: 0.3 mM

Question: What about the “time to activation of AMPK after treatment” value (AMPK [2]; discussion statement) of the same compound?
Answer: ≤ 30 min

Question: What about the “LDH release of neurons in response to conditioned medium of LPS-activated microglia, versus control or metformin hydrochloride” value [3] of the same compound?
Answer: remarkably decrease

Question: What about the “accumulation of metformin compared with the same concentration of metformin hydrochloride” value (BV-2 microglial cells [4]) of the same compound?
Answer: more rapid

Question: And the “Vmax of metformin uptake” value (BV-2 microglial cells [4]; [12])?
Answer: 9.5 ± 1.2 nmol/min/mg protein

Question: What about the “intracellular metformin contents compared with metformin hydrochloride” value (BV-2 microglial cells [4]; LC-MS/MS) of the same compound?
Answer: elevated intracellular metformin contents

Question: And the Km (BV-2 microglial cells [4]; read-out: Km of metformin uptake, 15 min uptake, Michaelis-Menten fit)?
Answer: 7.2 ± 1.5 mM

Question: What about the IC50 (BV-2 microglial cells [5]) of the same compound?
Answer: 302 µM

Question: What about the “inhibition of LPS-induced pro-inflammatory cytokine expression (TNF-α, IL-1β, iNOS) compared with metformin hydrochloride” value (BV-2 microglial cells [6]) of the same compound?
Answer: stronger effect

Question: And the “metformin concentration in the brain” value (1 h after 50 mg/kg i.p.)?
Answer: 0.32 ± 0.023 µg/g

Question: What about the “metformin concentration in the brain” value (2 h after 50 mg/kg i.p.) of the same compound?
Answer: 0.25 ± 0.032 µg/g

Question: What about the “AUC (0−t)” value [13] of the same compound?
Answer: 1870 ± 230 ng·h/mL

Question: And the “AUC (0−∞)” value [13]?
Answer: 2050 ± 180 ng·h/mL

Question: And the Cmax [13]?
Answer: 520 ± 110 ng/mL

Question: And the “MRT (0−t)” value [13]?
Answer: 5.73 ± 0.63 h

Question: What about the “MRT (0−∞)” value [13] of the same compound?
Answer: 8.19 ± 0.66 h

Question: And the t max [13]?
Answer: 0.5 h

Question: What about the “Rope climbing test, difference between SHY-01 and metformin hydrochloride” value (tMCAO rats) of the same compound?
Answer: did not differ

Question: And the “atrophic volume of the ischemic brain versus vehicle” value (tMCAO rats)?
Answer: effectively reduced

Question: What about the “body weight changes, difference between SHY-01 and metformin hydrochloride” value (tMCAO rats) of the same compound?
Answer: did not differ

Question: And the “brain atrophy compared with metformin hydrochloride” value (tMCAO rats)?
Answer: more potent reduction

Question: And the “neurologic score compared with metformin hydrochloride” value (tMCAO rats)?
Answer: significantly better improvement

Question: And the “spatial learning in the Morris water maze test compared with metformin hydrochloride” value (tMCAO rats)?
Answer: significantly better improvement

Question: And the “half-life (t 1/2)” value [7]?
Answer: 8.22 ± 5.52 h

Question: And the “maximum plasma concentration (Cmax)” value [7]?
Answer: 11.29 ± 3.9 ng/mL

Question: And the “AUC (0−t)” value ([7]; metformin measured)?
Answer: 11470 ± 35 ng·h/mL

Question: What about the “AUC (0−∞)” value ([7]; metformin measured) of the same compound?
Answer: 12240 ± 40 ng·h/mL

Question: What about the CLz ([7]; metformin measured) of the same compound?
Answer: 4,116.73 ± 422.20 ml/hr/kg

Question: What about the Cmax ([7]; metformin measured) of the same compound?
Answer: 11300 ± 3900 ng/mL

Question: What about the “MRT (0−t)” value ([7]; metformin measured) of the same compound?
Answer: 2.69 ± 0.45 H

Question: And the “MRT (0−∞)” value ([7]; metformin measured)?
Answer: 5.06 ± 2.54 H

Question: What about the Vz ([7]; metformin measured) of the same compound?
Answer: 50,055.01 ± 36,787.23 ml/kg

Question: What about the “t 1/2” value ([7]; metformin measured) of the same compound?
Answer: 8.22 ± 5.524 H

Question: What about the t max ([7]; metformin measured) of the same compound?
Answer: 0.5 H

Question: And the “potency on AMPK activation among the metformin salts screened” value (AMPK [8])?
Answer: strongest potency

Question: For `c1cc(-c2cnn3cc(-c4ccc(OCCN5CCCCC5)cc4)cnc23)ccn1` [compound C], which “effect on the inhibitory effect of SHY-01 on LPS-induced nitrite, TNF-α and IL-1β” value (BV-2 microglial cells [5]; compound C 10 μM 1 h pre-incubation, SHY-01 1 mM, LPS 200 ng/ml) is on record?
Answer: abolished

Question: Which results are given for `CN(C)C(=N)N=C(N)N` [metformin hydrochloride]?
Answer: OGD-induced neuronal injury (cell viability, MTT) [1]: did not elicit such an effect; onset time of AMPK activation (AMPK [2]; BV-2 cells): 4 h; concentration at which activation of AMPK (p-AMPK) was observed (lowest effective) (AMPK [2]; BV-2 cells): 1.0 mM; AUC (in vivo [9]): 7170 ± 275 ng·h/mL; AUC(0-inf) (in vivo [9]): 7170 ± 280 ng·h/mL; AUC(0-t) (in vivo [9]): 6590 ± 270 ng·h/mL; Cmax (in vivo [9]): 6630 ± 2100 ng/mL; MRT inf (in vivo [9]): 6.06 ± 1.73 h; MRT last (in vivo [9]): 3.48 ± 0.65 h; t max (in vivo [9]): 0.5 h; Vmax of metformin uptake (BV-2 microglial cells [4]; [12]): 4.6 ± 0.6 nmol/min/mg protein; IC50 (BV-2 microglial cells [5]; Mus musculus): 1070 µM; treatment time required to activate AMPK (AMPK [10]): ≥ 4 h; concentration at 1 h (in vivo [11]; intraperitoneal): 190 ± 32 ng/g; concentration at 2 h (in vivo [11]; intraperitoneal): 110 ± 12 ng/g; AUC(0-inf) (in vivo [11]; ip): 1890 ± 80 ng·h/mL; AUC(0-t) (in vivo [11]; ip): 1600 ± 180 ng·h/mL; Cmax (in vivo [11]; ip): 320 ± 80 ng/g; MRT inf (in vivo [11]; ip): 12.2 ± 2.9 h; MRT last (in vivo [11]; ip): 7.71 ± 0.45 h; t max (in vivo [11]; ip): 0.5 h; Km at 15 min (in vitro): 7.1 ± 1.7 mM; atrophic volume of the ischemic brain versus vehicle (tMCAO rats): effectively reduced; CLz ([7]; metformin measured): 7,068.89 ± 949.45 ml/hr/kg; Cmax ([7]; metformin measured): 6640 ± 2110 ng/mL; Vz ([7]; metformin measured): 79,683.93 ± 23,176.87 ml/kg
